Assay results published in US8034574B2, “Screening method for prokinetic agent” (Astellas Pharma Inc., priority 2006, dated 2011).

What was measured:
RIN14B cells [1] = test: Channel activity in RIN14B cells using calcium-sensitive fluorescent reagent (FLIPR); type: cell-based, rat; conditions: siRNA-introduced RIN14B; allyl isothiocyanate 300 μM
Procedure: RIN14B cells (5×10^4 cells), wherein the expression of TRPA1 was confirmed in Example 10, were incubated in the presence of a calcium-sensitive fluorescent reagent (Fluo3-AM; DOJINDO) at 37° C. for 1 hour to thereby incorporate the calcium-sensitive fluorescent reagent in the cells, after which the cells were washed with physiological saline to remove the calcium-sensitive fluorescent reagent that had not been incorporated in the cells. To the cells obtained, physiological saline supplemented with allyl isothiocyanate, cinnamic aldehyde, or acrolein was added; the fluorescence emitted by the cells was measured over time. The above-described measurements were performed using an automated fluorescence detection apparatus (FLIPR; Molecular Device). […] Ruthenium Red was added concurrently and a measurement was performed to determine whether or not calcium inflow in the cells was be inhibited.

rat TRPA1 gene = test: Suppression of rat TRPA1 gene expression by siRNA in RIN14B cells (real time PCR); type: cell-based; conditions: siRNA 10 nM, 2 days
Procedure: The expression of the TRPA1 gene in rat tissues, a rat EC cell fraction and RIN14B cells was analyzed by real time PCR using a sequence detector (PRISM7900; Applied Biosystems). With the first strand cDNA derived from rat tissue, rat EC cells or RIN14B cells, obtained in the aforementioned Example, as the template, using a fluorescent reagent (SYBR Green PCR Core Reagents Kit; Applied Biosystems), PCR was performed. The aforementioned PCR was performed using an oligonucleotide consisting of the base sequence shown by SEQ ID NO:13 as a sense primer, and an oligonucleotide consisting of the base sequence shown by SEQ ID NO:14 as an antisense primer; first, thermal denaturation was performed at 95° C. (10 minutes), after which a cycle consisting of heat treatment at 95° C. (15 seconds)/59° C. (1 minute) was repeated 45 times. Each primer is a sequence specific for a gene consisting of the base sequence shown by SEQ ID NO:5. […]
RIN14B cells were sown to a 60 mm Petri dish at 6×10^5 cells and cultured for 1 day. After various sequences of siRNA for rat TRPA1 (10 nM), designed using the siRNA design system siDirect (RNAi), were introduced using a transformation reagent (LIPOFECTAMINE2000; Invitrogen Japan K.K.), the RIN14B cells were further cultured for 2 days, and the expression level of the rat TRPA1 gene was measured. […]

RIN14B cells [2] = test: Serotonin secretion from RIN14B cells (immunoassay); type: cell-based, rat; conditions: siRNA-introduced RIN14B; listed as #971 siRNA
Procedure: After RIN14B cells in culture in a Petri dish were detached using a PBS containing 1 mM EDTA, they were sown to a 96-well plate and cultured for 2 days. The medium used was RPMI1640 (Invitrogen Japan K.K.) supplemented with 10% fetal bovine serum (ICN), 100 U/ml penicillin, and 100 μg/ml streptomycin. After the cells were once washed with Hanks' Balanced Salt Solutions (HBSS, Invitrogen) supplemented with 0.1% BSA and 10 μM fluoxetine (TOCRIS), each TRPA1 activator, previously diluted/prepared with the above-described HBSS, was added, and the RIN14B cells were cultured at 37° C. in the presence of 5% CO2 for 20 minutes. After the cultivation, the cell supernatant was recovered, and stored under freezing. The serotonin content in the supernatant was measured using a commercially available serotonin immunoassay kit (Beckman).

## #971: a rat TRPA1-specific siRNA (sense strand SEQ ID NO:15, antisense strand SEQ ID NO:16) (sense CUGGCAGACUACCUAAUUUCA; antisense AAAUUAGGUAGUCUGCCAGGU; listed as RNA, chemistry not given here)
RIN14B cells [1]
  suppression of intracellular calcium inflow activity of allyl isothiocyanate: 67.3%
Rat TRPA1 gene
  expression level of the rat TRPA1 gene: a reduction in the expression level of the rat TRPA1 was observed
RIN14B cells [2]
  serotonin secretion increasing activity of cinnamic aldehyde in siRNA-introduced RIN14B: suppressed cinnamic aldehyde-induced serotonin release
